The supplement of paper PMC10307832

Tests used:
Test in all cases: relative viability (nuclei count vs DMSO), 5 days (fraction); higher = more cells survive
[1] = compound: CC(=O)Nc1cccc(-n2c(=O)n(C3CC3)c(=O)c3c(Nc4ccc(I)cc4F)n(C)c(=O)c(C)c32)c1 [Trametinib] + COc1cccc2cc(-c3nc([C@H]4CC[C@H](C(=O)O)CC4)n4ncnc(N)c34)[nH]c12 [OSI-027] (partner 0.5 µM)
How it was run: (§1)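 Relative viability is defined as nuclei in treated wells over nuclei in vehicle wells. Duplicate plates were run and medians reported. Lung cancer cell lines in 1536-well plates were dosed by pin tool one day after seeding, with one drug or with a fixed anchor-drug dose plus five library-drug doses (not always all listed) in √10 steps, and nuclei were counted after 5 days.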

[2] = compound: CC(=O)Nc1cccc(-n2c(=O)n(C3CC3)c(=O)c3c(Nc4ccc(I)cc4F)n(C)c(=O)c(C)c32)c1 [Trametinib] + O=C(c1cc(Cc2n[nH]c(=O)c3ccccc23)ccc1F)N1CCN(C(=O)C2CC2)CC1 [Olaparib] (partner 8 µM)
How it was run: as §1

[3] = compound: CN1C=C(C2=CC=CC=C21)/C=C\3/C4=C(C=CC=N4)NC3=O + CC(=O)Nc1cccc(-n2c(=O)n(C3CC3)c(=O)c3c(Nc4ccc(I)cc4F)n(C)c(=O)c(C)c32)c1 [Trametinib] (partner 0.02 µM)
How it was run: as §1

[4] = compound: CN1C=C(C2=CC=CC=C21)/C=C\3/C4=C(C=CC=N4)NC3=O + N=C(N)NC(=N)NCCc1ccccc1 [Phenformin] (partner 250 µM)
How it was run: as §1

## UMC-11
[1]; first compound 0.0025 µM
  relative viability: 0.478
[1]; first compound 0.007906 µM
  relative viability: 0.403
[1]; first compound 0.025 µM
  relative viability: 0.291
[1]; first compound 0.07906 µM
  relative viability: 0.414
[1]; first compound 0.25 µM
  relative viability: 0.406
[2]; first compound 0.0025 µM
  relative viability: 0.547
[2]; first compound 0.007906 µM
  relative viability: 0.455
[2]; first compound 0.07906 µM
  relative viability: 0.303
[2]; first compound 0.25 µM
  relative viability: 0.29
[3]; first compound 0.02 µM
  relative viability: 0.638
[3]; first compound 0.06325 µM
  relative viability: 0.549
[3]; first compound 0.2 µM
  relative viability: 0.552
[3]; first compound 0.6325 µM
  relative viability: 0.671
[3]; first compound 2 µM
  relative viability: 0.78
[4]; first compound 0.02 µM
  relative viability: 0.299
[4]; first compound 0.06325 µM
  relative viability: 0.306
[4]; first compound 0.2 µM
  relative viability: 0.265
[4]; first compound 0.6325 µM
  relative viability: 0.369
[4]; first compound 2 µM
  relative viability: 0.34
